Where two headings read alike, the source gives them in different places.
Assays:
[1] = Unbound plasma lurbinectedin pharmacokinetics with and without itraconazole (phase Ib drug-drug interaction study); format: in vivo, human
Excerpt: (§1) The study consisted of two parts.

[2] = Safety assessment: adverse events and laboratory abnormalities graded by NCI-CTCAE v. 5.0; format: in vivo, human
Excerpt: Safety analyses included all 14 patients who received at least one dose of lurbinectedin (Part A, n = 3; Part B, n = 11). Thirteen of the fourteen treated patients (three in Part A and ten in Part B) received itraconazole plus lurbinectedin in Cycles 1 or 2, and all fourteen treated patients (three in Part A and 11 in Part B) received lurbinectedin alone in Cycles 1, 2, or 3.
as §1
Safety evaluations included assessments of AEs, clinical laboratory tests, deaths, vital signs measurements, and physical examinations. TEAEs were defined as any AE that worsened in severity from baseline or having their onset between the first dose of the study drug and 31 days (±10 days) after the last dose, death, or date of further therapy. AEs were coded based on the Medical Dictionary for Regulatory Activities (MedDRA) v. 23.0 and graded as per the National Cancer Institute–Common Terminology Criteria for Adverse Events (NCI-CTCAE) v. 5.0.

[3] = Total plasma lurbinectedin pharmacokinetics with and without itraconazole (phase Ib drug-drug interaction study); format: in vivo, human
Excerpt: as §1

[4] = cited from earlier work
[5] = system: cytochrome P450 (CYP) 3A; settings: based on in vitro studies; cited from earlier work
[6] = design: method as in PMID 24563480; settings: 1.3 mg/m^2 over 1 h without CYP3A4 inhibitors; cited from earlier work
[7] = cited from earlier work; remark: listed apart in the source
[8] = co-administration with itraconazole compared to lurbinectedin alone
[9] = unbound plasma lurbinectedin, Test n = 5, Reference n = 8
[10] = Part A (LRB 0.8 mg/m^2 with ITZ, 3.2 mg/m^2 alone), all grades
[11] = Part A (LRB 0.8 mg/m^2 with ITZ, 3.2 mg/m^2 alone), grade 3
[12] = Part A (LRB 0.8 mg/m^2 with ITZ, 3.2 mg/m^2 alone), grade 4
[13] = Part B (LRB 0.9 mg/m^2 with ITZ, 3.2 mg/m^2 alone), all grades
[14] = Part B (LRB 0.9 mg/m^2 with ITZ, 3.2 mg/m^2 alone), grade 3
[15] = Part B (LRB 0.9 mg/m^2 with ITZ, 3.2 mg/m^2 alone), grade 4
[16] = co-administration with itraconazole compared to lurbinectedin alone, listed as LRB
[17] = co-administration with multiple oral doses of itraconazole
[18] = total plasma lurbinectedin, n = 8 patients per treatment

SMILES: COc1ccc2[nH]c3c(c2c1)CCN[C@]31CS[C@@H]2c3c(OC(C)=O)c(C)c4c(c3[C@H](COC1=O)N1[C@@H]2[C@H]2c3c(cc(C)c(OC)c3O)C[C@@H]([C@@H]1O)N2C)OCO4 [lurbinectedin]
- Decrease of unbound CL [1, 8]: 58%
- Increase of unbound AUC0–∞ [1, 8]: 2.4 fold
- Unbound t1/2 longer [1, 8]: 2 fold
- Vd ([1]; human, intravenous, 3.2 mg/m^2, unbound plasma lurbinectedin, Test n = 5, Reference n = 8, read-out: Unbound Vss, geometric mean (CV%)): 235000 L
- half-life ([1]; human, intravenous, 3.2 mg/m^2, unbound plasma lurbinectedin, Test n = 5, Reference n = 8, read-out: Unbound t1/2, geometric mean (CV%) (converted)): 2800 min
- Unbound AUC0–t, dose-normalized, geometric mean (CV%) [1, 9]: 184.55 (57.58) pg·h/mL/mg
- Unbound AUC0–∞, dose-normalized, geometric mean (CV%) [1, 9]: 188.84 (56.92) pg·h/mL/mg
- Unbound CL, geometric mean (CV%) [1, 9]: 5295.44 (56.92) L/h
- Unbound Cmax, dose-normalized, geometric mean (CV%) [1, 9]: 40.03 (21.75) pg/mL/mg
- Tolerability ([2]; 0.9 mg/m^2 1 h IV infusion Day 1 q3wk with itraconazole): well tolerated
- ALT increased (biochemical laboratory abnormality, regardless of relationship) [2, 10]: 1 (33) n (%) of patients
- Anemia (hematological laboratory abnormality, regardless of relationship) [2, 10]: 3 (100) n (%) of patients
- Constipation (treatment-related AE) [2, 10]: 1 (33) n (%) of patients
- GGT increased (biochemical laboratory abnormality, regardless of relationship) [2, 10]: 1 (33) n (%) of patients
- Leukopenia (hematological laboratory abnormality, regardless of relationship) [2, 10]: 3 (100) n (%) of patients
- Lymphopenia (hematological laboratory abnormality, regardless of relationship) [2, 10]: 3 (100) n (%) of patients
- Neutropenia (hematological laboratory abnormality, regardless of relationship) [2, 10]: 2 (67) n (%) of patients
- Thrombocytopenia (hematological laboratory abnormality, regardless of relationship) [2, 10]: 2 (67) n (%) of patients
- Vomiting (treatment-related AE) [2, 10]: 1 (33) n (%) of patients
- ALT increased (biochemical laboratory abnormality, regardless of relationship) [2, 11]: 1 (33) n (%) of patients
- Leukopenia (hematological laboratory abnormality, regardless of relationship) [2, 11]: 1 (33) n (%) of patients
- Lymphopenia (hematological laboratory abnormality, regardless of relationship) [2, 11]: 1 (33) n (%) of patients
- Leukopenia (hematological laboratory abnormality, regardless of relationship) [2, 12]: 1 (33) n (%) of patients
- Neutropenia (hematological laboratory abnormality, regardless of relationship) [2, 12]: 2 (67) n (%) of patients
- Bone pain (treatment-emergent AE, regardless of relationship) ([2]; Part A, all grades): 1 (33) n (%) of patients
- Constipation (treatment-emergent AE, regardless of relationship) ([2]; Part A, all grades): 1 (33) n (%) of patients
- Dysgeusia (treatment-emergent AE, regardless of relationship) ([2]; Part A, all grades): 1 (33) n (%) of patients
- Fatigue (treatment-emergent AE, regardless of relationship) ([2]; Part A, all grades): 1 (33) n (%) of patients
- Pleural effusion (treatment-emergent AE, regardless of relationship) ([2]; Part A, all grades): 1 (33) n (%) of patients
- Vomiting (treatment-emergent AE, regardless of relationship) ([2]; Part A, all grades): 1 (33) n (%) of patients
- Pleural effusion (treatment-emergent AE, regardless of relationship) ([2]; Part A, grade 3): 1 (33) n (%) of patients
- ALT increased (biochemical laboratory abnormality, regardless of relationship) [2, 13]: 9 (82) n (%) of patients
- Acute kidney injury (treatment-related AE) [2, 13]: 1 (9) n (%) of patients
- Anemia (hematological laboratory abnormality, regardless of relationship) [2, 13]: 9 (82) n (%) of patients
- CPK increased (biochemical laboratory abnormality, regardless of relationship) [2, 13]: 1 (9) n (%) of patients
- Fatigue (treatment-related AE) [2, 13]: 2 (18) n (%) of patients
- GGT increased (biochemical laboratory abnormality, regardless of relationship) [2, 13]: 4 (36) n (%) of patients
- Leukopenia (hematological laboratory abnormality, regardless of relationship) [2, 13]: 8 (73) n (%) of patients
- Lymphopenia (hematological laboratory abnormality, regardless of relationship) [2, 13]: 9 (82) n (%) of patients
- Nausea (treatment-related AE) [2, 13]: 5 (45) n (%) of patients
- Neutropenia (hematological laboratory abnormality, regardless of relationship) [2, 13]: 8 (73) n (%) of patients
- Rhabdomyolysis (treatment-related AE) [2, 13]: 1 (9) n (%) of patients
- Thrombocytopenia (hematological laboratory abnormality, regardless of relationship) [2, 13]: 8 (73) n (%) of patients
- Vomiting (treatment-related AE) [2, 13]: 3 (27) n (%) of patients
- Acute kidney injury (treatment-related AE) [2, 14]: 1 (9) n (%) of patients
- Anemia (hematological laboratory abnormality, regardless of relationship) [2, 14]: 1 (9) n (%) of patients
- GGT increased (biochemical laboratory abnormality, regardless of relationship) [2, 14]: 1 (9) n (%) of patients
- Leukopenia (hematological laboratory abnormality, regardless of relationship) [2, 14]: 5 (45) n (%) of patients
- Lymphopenia (hematological laboratory abnormality, regardless of relationship) [2, 14]: 2 (18) n (%) of patients
- Neutropenia (hematological laboratory abnormality, regardless of relationship) [2, 14]: 5 (45) n (%) of patients
- Rhabdomyolysis (treatment-related AE) [2, 14]: 1 (9) n (%) of patients
- Vomiting (treatment-related AE) [2, 14]: 1 (9) n (%) of patients
- CPK increased (biochemical laboratory abnormality, regardless of relationship) [2, 15]: 1 (9) n (%) of patients
- Leukopenia (hematological laboratory abnormality, regardless of relationship) [2, 15]: 1 (9) n (%) of patients
- Lymphopenia (hematological laboratory abnormality, regardless of relationship) [2, 15]: 1 (9) n (%) of patients
- Neutropenia (hematological laboratory abnormality, regardless of relationship) [2, 15]: 3 (27) n (%) of patients
- Thrombocytopenia (hematological laboratory abnormality, regardless of relationship) [2, 15]: 1 (9) n (%) of patients
- Acute kidney injury (treatment-emergent AE, regardless of relationship) ([2]; Part B, all grades): 1 (9) n (%) of patients
- Deep vein thrombosis (treatment-emergent AE, regardless of relationship) ([2]; Part B, all grades): 1 (9) n (%) of patients
- Diarrhea (treatment-emergent AE, regardless of relationship) ([2]; Part B, all grades): 1 (9) n (%) of patients
- Fatigue (treatment-emergent AE, regardless of relationship) ([2]; Part B, all grades): 2 (18) n (%) of patients
- Intestinal pseudo-obstruction (treatment-emergent AE, regardless of relationship) ([2]; Part B, all grades): 1 (9) n (%) of patients
- Nausea (treatment-emergent AE, regardless of relationship) ([2]; Part B, all grades): 5 (45) n (%) of patients
- Respiratory failure (treatment-emergent AE, regardless of relationship) ([2]; Part B, all grades): 1 (9) n (%) of patients
- Rhabdomyolysis (treatment-emergent AE, regardless of relationship) ([2]; Part B, all grades): 1 (9) n (%) of patients
- Small intestinal obstruction (treatment-emergent AE, regardless of relationship) ([2]; Part B, all grades): 1 (9) n (%) of patients
- Stomatitis (treatment-emergent AE, regardless of relationship) ([2]; Part B, all grades): 1 (9) n (%) of patients
- Vomiting (treatment-emergent AE, regardless of relationship) ([2]; Part B, all grades): 3 (27) n (%) of patients
- Acute kidney injury (treatment-emergent AE, regardless of relationship) ([2]; Part B, grade 3): 1 (9) n (%) of patients
- Deep vein thrombosis (treatment-emergent AE, regardless of relationship) ([2]; Part B, grade 3): 1 (9) n (%) of patients
- Rhabdomyolysis (treatment-emergent AE, regardless of relationship) ([2]; Part B, grade 3): 1 (9) n (%) of patients
- Small intestinal obstruction (treatment-emergent AE, regardless of relationship) ([2]; Part B, grade 3): 1 (9) n (%) of patients
- Vomiting (treatment-emergent AE, regardless of relationship) ([2]; Part B, grade 3): 1 (9) n (%) of patients
- Patients with lurbinectedin dose reduction due to AEs ([2]; during treatment with lurbinectedin alone (grade 3 ALT increase; grade 4 neutropenia)): Two
- Patients who discontinued treatment due to a treatment-related serious AE ([2]; grade 3 rhabdomyolysis, Cycle 2 of Part B (Sequence 1), lurbinectedin alone): one
- Increase of total plasma AUC0–t [3, 8]: approximately 2.4 fold
- Increase of total plasma AUC0–∞ [3, 8]: approximately 2.7 fold
- Increase of total plasma Cmax [3, 8]: 15%
- Increase of total plasma AUC0–t [3, 16]: 2.4 fold
- Increase of total plasma AUC0–∞ [3, 16]: 2.7 fold
- Prolongation of terminal half-life (t1/2), total plasma [3, 17]: 2.2 fold
- Reduction of total plasma CL [3, 17]: 63%
- clearance ([3]; human, intravenous, 3.2 mg/m^2, total plasma lurbinectedin, n = 8 patients per treatment, read-out: CL, geometric mean (CV%) (converted)): 158 mL/min
- Vd ([3]; human, intravenous, 3.2 mg/m^2, total plasma lurbinectedin, n = 8 patients per treatment, read-out: Vss, geometric mean (CV%)): 419 L
- half-life ([3]; human, intravenous, 3.2 mg/m^2, total plasma lurbinectedin, n = 8 patients per treatment, read-out: t1/2, geometric mean (CV%) (converted)): 2800 min
- AUC0–t, dose-normalized, geometric mean (CV%) [3, 18]: 103.4 (78.85) µg·h/L/mg
- AUC0–∞, dose-normalized, geometric mean (CV%) [3, 18]: 105.8 (77.37) µg·h/L/mg
- Cmax, dose-normalized, geometric mean (CV%) [3, 18]: 22.43 (53.75) µg/L/mg
- Protein binding [4]: highly protein-bound
- Major clearance (CL) mechanism [5]: metabolism of lurbinectedin by cytochrome P450 (CYP) 3A
- Time after starting the infusion for which plasma concentrations were measurable [6]: at least 160 h
- Population estimate for total plasma CL ([7]; 1 h IV infusion, single agent or combined): 11.2 L/h
- Extraction ratio [7]: 0.19
- Population estimate of apparent volume at steady state [7]: 438 L
- Reduction of CL ([7]; co-administration of cytochrome CYP3A inhibitors): 30%
- Decrease of mean plasma CL ([7]; concomitant administration of aprepitant (a moderate CYP3A4 inhibitor)): 30%
- Blood CL ([7]; corresponding to total plasma CL 11.2 L/h): ~ 17 L/h
- Reduction of CL ([7]; high C-reactive protein): 20%
- Reduction of CL ([7]; high α-1-acid glycoprotein): 28%
- Reduction of CL ([7]; low albumin): 20%

From publication PMC11050816, “Pharmacokinetics and Safety of Lurbinectedin Administrated with Itraconazole in Cancer Patients: A Drug–Drug Interaction Study” (Marine Drugs, 2024)
